What was measured:
[1] = target: T1, ligand-binding domain of RORγ (RORγ-LBD) (Homo sapiens, UniProt P51449); assay: Inhibitory effect on RORγ-coactivator binding (LanthaScreen TR-FRET RORγ Coactivator Assay); details: at 33 μmol/L of the test compound; read-out: RORγ-coactivator binding inhibition rate (%)
T1 construct: purchased Invitrogen
T1 sequence (P51449 269-508 limits assumed): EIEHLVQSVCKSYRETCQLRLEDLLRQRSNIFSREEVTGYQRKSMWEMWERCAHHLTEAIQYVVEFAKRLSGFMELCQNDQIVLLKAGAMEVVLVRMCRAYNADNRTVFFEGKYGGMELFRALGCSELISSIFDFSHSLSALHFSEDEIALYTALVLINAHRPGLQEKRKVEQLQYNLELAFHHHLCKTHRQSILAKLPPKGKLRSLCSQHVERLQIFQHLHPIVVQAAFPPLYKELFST
Description: The inhibitory effect of the cyclic amine derivative (I) or a pharmacologically acceptable salt thereof on the binding between a ligand-binding domain of RORγ (hereinafter referred to as RORγ-LBD) and a coactivator was evaluated using Invitrogen's LanthaScreen™TR-FRET Retinoid-Related Orphan Receptor (ROR) gamma Coactivator Assay kit utilizing time-resolved fluorescence energy transfer (TR-FRET).
The test compound was dissolved in DMSO and diluted with TR-FRET Coregulator Buffer D (Invitrogen) containing 5 mmol/L of DTT to have a final DMSO concentration of 1% before use. To each well of a 384-well black plate (Corning Inc.), 4 nmol/L of GST-fused RORγ-LBD (Invitrogen) diluted with the buffer mentioned above and the test compound were added. A well without addition of the test compound and without addition of GST-fused RORγ-LBD (background) and a well without addition of the test compound and with addition of GST-fused RORγ-LBD (control) were prepared. Next, 150 nmol/L of fluorescein-labeled TRAP220/DRIP-2 (Invitrogen) diluted with the buffer mentioned above and 32 nmol/L of terbium-labeled anti-GST antibody (Invitrogen) were added to each well. After incubating the plate at room temperature for 16 to 24 hours, the fluorescence at 495 nm and 520 nm when excited at 320 nm was measured for each well and the ratio (fluorescence value at 520 nm/fluorescence value at 495 nm) was calculated.
The fold change with addition of the test compound (ratio with addition of the test compound/ratio of the background), the fold change of the control (ratio of the control/ratio of the background), and the fold change of the background (ratio of the background/ratio of the background) were calculated, and then the inhibition rate of binding between RORγ-LBD and a coactivator (hereinafter referred to as RORγ-coactivator binding inhibition rate) (%) was calculated from Formula 1: RORγ-coactivator binding inhibition rate(%)=(1−((Fold change with addition of the test compound)−(Fold change of the background))/((Fold change of the control)−(Fold change of the background)))×100 Formula 1

[2] = tested on: IL-17 production in mouse splenocytes; assay: Suppressive effect on IL-17 production by IL-23 stimulation in mouse splenocytes; assay type: cell-based; details: Splenocyte, 72 h, at 5 μmol/L of the test compound, 10 ng/mL human IL-23, 3 days, read-out: IL-17 production inhibition rate (%)
Description: Using mouse splenocytes, the suppressive effect of the cyclic amine derivative (I) or a pharmacologically acceptable salt thereof on IL-17 production by IL-23 stimulation was evaluated by a partially modified method mentioned in The Journal of Biological Chemistry, 2003, Vol. 278, No. 3, p. 1910-1914.
A single cell suspension was prepared from the spleen of C57BL/6J mice (male, 7 to 23 weeks old) (Charles River Laboratories Japan, Inc.) and splenocytes were prepared using Histopaque-1083 (Sigma-Aldrich Japan). The culture medium was used by adding 10% FBS (Gibco), 50 U/mL of penicillin 50 μg/mL of streptomycin (Gibco), 50 μmol/L of 2-mercaptoethanol (Gibco), and 100 U/mL of human IL-2 (Cell Science & Technology Institute, Inc.) to RPMI1640 medium (Gibco). The test compound was dissolved in DMSO and then diluted with the culture medium to have a final concentration of DMSO of 0.1% before use. Splenocytes (3×10^5 cells/well) prepared in the culture medium were seeded in wells of a 96-well flat-bottom plate (Corning Incorporated), the test compound and 10 ng/mL of human IL-23 (R & D systems, Inc.) were added thereto, and the cells were cultured at 37° C. under 5% CO2 for 3 days. A well without addition of human IL-23 and without addition of the test compound and a well with addition of human IL-23 and without addition of the test compound were prepared. After completion of the culture, the culture supernatant was collected and the IL-17 production amount in the supernatant was determined by ELISA method (R & D systems, Inc.).
The IL-17 production inhibition rate (%) was calculated from Formula 2. IL-17 production inhibition rate(%)=(1−((IL-17 production amount with addition of IL-23 and with addition of the test compound)−(IL-17 production amount without addition of IL-23 and without addition of the test compound))/((IL-17 production amount with addition of IL-23 and without addition of the test compound)−(IL-17 production amount without addition of IL-23 and without addition of the test compound)))×100 Formula 2

Compound	inhibition at 33 µM [1] [%]	inhibition at 5 µM [2] [%]
O=C(Nc1ccc(-c2ccccc2OC(F)(F)F)c(Cl)c1)[C@H]1CCCCN1C(=O)CCn1cnnn1 [Example 58, (R)-1-(3-(1H-tetrazol-1-yl)propanoyl)-N-(2-chloro-2′-(trifluoromethoxy)-[1,1′-biphenyl]-4-yl)piperidine-2-carboxamide]	100	99.7
CC(=O)N1CC[C@@H](F)C[C@@H]1C(=O)Nc1ccc(-c2ccccc2OC(F)(F)F)c(Cl)c1 [Example 25, (2R,4R)-1-acetyl-N-(2-chloro-2′-(trifluoromethoxy)-[1,1′-biphenyl]-4-yl)-4-fluoropiperidine-2-carboxamide]	94.2	99.4
O=C(Nc1ccc(-c2ccccc2OC(F)(F)F)c(Cl)c1)C1CCCCN1C(=O)COC(F)(F)F (stereo not shown) [Example 8, N-(2-chloro-2′-(trifluoromethoxy)-[1,1′-biphenyl]-4-yl)-1-(2-(trifluoromethoxy)acetyl)piperidine-2-carboxamide]	95.2	99.2
CS(=O)(=O)N1CCCCC1C(=O)Nc1ccc(-c2ccccc2OC(F)(F)F)c(Cl)c1 (stereo not shown) [Example 15, N-(2-chloro-2′-(trifluoromethoxy)-[1,1′-biphenyl]-4-yl)-1-(methylsulfonyl)piperidine-2-carboxamide]	100	99.4
CC(C)Oc1ccccc1-c1ccc(NC(=O)C2CCCCN2C(=O)CN(C)S(C)(=O)=O)cc1Cl (stereo not shown) [Example 49, N-(2-chloro-2′-isopropoxy-[1,1′-biphenyl]-4-yl)-1-(2-(N-methylmethylsulfonamide)acetyl)piperidine-2-carboxamide]	99.3	98.3
Cc1nnc(CC(=O)N2CCCC[C@@H]2C(=O)Nc2ccc(-c3ccccc3OC(F)(F)F)c(Cl)c2)o1 [Example 67, (R)-N-(2-chloro-2′-(trifluoromethoxy)-[1,1′-biphenyl]-4-yl)-1-(2-(5-methyl-1,3,4-oxadiazol-2-yl)acetyl)piperidine-2-carboxamide]	99.1	98.7
CS(=O)(=O)N1CCCC[C@@H]1C(=O)Nc1ccc(-c2ccccc2OC(F)(F)F)c(Cl)c1 [Example 21, (R)-N-(2-chloro-2′-(trifluoromethoxy)-[1,1′-biphenyl]-4-yl)-1-(methylsulfonyl)piperidine-2-carboxamide]	98.2	99.8
Cc1ccn(CCC(=O)N2CCCC[C@@H]2C(=O)Nc2ccc(-c3ccccc3OC(F)(F)F)c(Cl)c2)n1 [Example 60, (R)-1-(3-(3-methyl-1H-pyrazol-1-yl)propanoyl)-N-(2-chloro-2′-(trifluoromethoxy)-[1,1′-biphenyl]-4-yl)piperidine-2-carboxamide]	93.6	99.7
CCS(=O)(=O)N1CCCCC1C(=O)Nc1ccc(-c2ccccc2OC(F)(F)F)c(Cl)c1 (stereo not shown) [Example 14, N-(2-chloro-2′-(trifluoromethoxy)-[1,1′-biphenyl]-4-yl)-1-(ethylsulfonyl)piperidine-2-carboxamide]	94	90.5
COC(=O)CCC(=O)N1CCCCC1C(=O)Nc1ccc(-c2ccccc2OC(F)(F)F)c(Cl)c1 (stereo not shown) [Example 44, methyl 4-(2-((2-chloro-2′-(trifluoromethoxy)-[1,1′-biphenyl]-4-yl)carbamoyl)piperidin-1-yl)-4-oxobutanoate]	97.1	91.5
CS(=O)(=O)NCCC(=O)N1CCCCC1C(=O)Nc1ccc(-c2ccccc2OC(F)(F)F)c(Cl)c1 (stereo not shown) [Example 32, N-(2-chloro-2′-(trifluoromethoxy)-[1,1′-biphenyl]-4-yl)-1-(3-(methylsulfonamide)propanoyl)piperidine-2-carboxamide]	94.7	98.8
COCCC(=O)N1CCCCC1C(=O)Nc1ccc(-c2ccccc2OC(F)(F)F)c(Cl)c1 (stereo not shown) [Example 45, N-(2-chloro-2′-(trifluoromethoxy)-[1,1′-biphenyl]-4-yl)-1-(3-methoxypropanoyl)piperidine-2-carboxamide]	92	99.9

Continued, in another order:

inhibition at 33 µM [1] [%]	Compound	inhibition at 5 µM [2] [%]
105	O=C(Nc1ccc(-c2ccccc2OC(F)(F)F)c(Cl)c1)C1CCCCN1C(=O)Cn1cnnn1 (stereo not shown) [Example 53, 1-(2-(1H-tetrazol-1-yl)acetyl)-N-(2-chloro-2′-(trifluoromethoxy)-[1,1′-biphenyl]-4-yl)piperidine-2-carboxamide]	102
97.3	O=C(Nc1ccc(-c2ccccc2OC(F)(F)F)c(Cl)c1)C1CCCCN1C(=O)Cn1ccnc1 (stereo not shown) [Example 52, 1-(2-(1H-imidazol-1-yl)acetyl)-N-(2-chloro-2′-(trifluoromethoxy)-[1,1′-biphenyl]-4-yl)piperidine-2-carboxamide]	99.3
88.2	CCC(=O)N1CCCCC1C(=O)Nc1ccc(-c2ccccc2OC(F)(F)F)c(Cl)c1 (stereo not shown) [Example 3, N-(2-chloro-2′-(trifluoromethoxy)-[1,1′-biphenyl]-4-yl)-1-propionylpiperidine-2-carboxamide]	98.6
102	O=C(Nc1ccc(-c2ccccc2OC(F)(F)F)c(Cl)c1)C1CCCCN1C(=O)Cc1ccco1 (stereo not shown) [Example 54, 1-(2-(furan-2-yl)acetyl)-N-(2-chloro-2′-(trifluoromethoxy)-[1,1′-biphenyl]-4-yl)piperidine-2-carboxamide]	98.7
102	O=C(Nc1ccc(-c2ccccc2OC(F)(F)F)c(Cl)c1)[C@H]1CCCCN1C(=O)Cn1cccn1 [Example 61, (R)-1-(2-(1H-pyrazol-1-yl)acetyl)-N-(2-chloro-2′-(trifluoromethoxy)-[1,1′-biphenyl]-4-yl)piperidine-2-carboxamide]	98.8
97.3	O=C(Nc1ccc(-c2ccccc2OC(F)(F)F)c(Cl)c1)[C@H]1CCCCN1C(=O)Cn1ccnn1 [Example 64, (R)-1-(2-(1H-1,2,3-triazol-1-yl)acetyl)-N-(2-chloro-2′-(trifluoromethoxy)-[1,1′-biphenyl]-4-yl)piperidine-2-carboxamide]	99.4
93.8	NC(=O)N1CCCCC1C(=O)Nc1ccc(-c2ccccc2OC(F)(F)F)c(Cl)c1 (stereo not shown) [Example 17, N^2-(2-chloro-2′-(trifluoromethoxy)-[1,1′-biphenyl]-4-yl)piperidine-1,2-dicarboxamide]	91.8
91.7	O=C(Nc1ccc(-c2ccccc2OC(F)(F)F)c(Cl)c1)[C@H]1CCCCN1C(=O)Cn1ccnc1 [Example 65, (R)-1-(2-(1H-imidazol-1-yl)acetyl)-N-(2-chloro-2′-(trifluoromethoxy)-[1,1′-biphenyl]-4-yl)piperidine-2-carboxamide]	99.6

Source: patent US10364222B2, “Cyclic amine derivative and medical use thereof” (Toray Industries, Inc., priority 2016, dated 2019)
